Reference: the NIST ThermoML archive (doi:10.1016/j.fluid.2014.05.033)
Several values for one entry are separate records, joined by “and”; a condition that tells them apart may be missing. Equal entries are not always repeated. Numbers after ± are expanded uncertainties.

Assays:
[1] = for kinematic viscosity / mass density: 101.33 kPa, Liquid; for kinematic viscosity: Capillary tube (Ostwald / Ubbelohde) method; for mass density: Vibrating tube method; for Normal melting temperature: Crystal, visual observation
[2] = refractive index (Na D-line) (dimensionless); details: 101.33 kPa, Liquid, Standard Abbe refractometry

## CO [methanol]
[1]; 288.15 K
  kinematic viscosity: 7.51e-07 ± 5e-09 m2/s
  mass density: 796.5 ± 0.11 kg/m3
[1]; 293.15 K
  kinematic viscosity: 7.03e-07 ± 5e-09 m2/s
  mass density: 791.46 ± 0.12 kg/m3
[1]; 298.15 K
  kinematic viscosity: 6.6e-07 ± 4e-09 m2/s
  mass density: 786.59 ± 0.12 kg/m3 and 786.69 ± 0.12 kg/m3
[1]; 303.15 K
  kinematic viscosity: 6.21e-07 ± 4e-09 m2/s
  mass density: 782.03 ± 0.12 kg/m3
[1]; 308.15 K
  kinematic viscosity: 5.79e-07 ± 4e-09 m2/s
  mass density: 777.29 ± 0.12 kg/m3
[1]; 313.15 K
  kinematic viscosity: 5.49e-07 ± 4e-09 m2/s
  mass density: 772.51 ± 0.12 kg/m3
[1]; 318.15 K
  kinematic viscosity: 5.19e-07 ± 4e-09 m2/s
  mass density: 767.69 ± 0.12 kg/m3
[1]
  Normal melting temperature: -98.00 ± 0.16 °C
[2]; 288.15 K
  refractive index: 1.3306 ± 0.0004
[2]; 293.15 K
  refractive index: 1.3285 ± 0.0004
[2]; 298.15 K
  refractive index: 1.3265 ± 0.0004
[2]; 303.15 K
  refractive index: 1.3245 ± 0.0004
[2]; 308.15 K
  refractive index: 1.3227 ± 0.0004
[2]; 313.15 K
  refractive index: 1.3208 ± 0.0004
[2]; 318.15 K
  refractive index: 1.3188 ± 0.0004

## COC(=O)OC [dimethyl carbonate]
[1]; 288.15 K
  kinematic viscosity: 6.05e-07 ± 4e-09 m2/s
  mass density: 1077.16 ± 0.07 kg/m3
[1]; 293.15 K
  kinematic viscosity: 5.7e-07 ± 4e-09 m2/s
  mass density: 1070.18 ± 0.07 kg/m3
[1]; 298.15 K
  kinematic viscosity: 5.41e-07 ± 4e-09 m2/s
  mass density: 1063.26 ± 0.06 kg/m3
[1]; 303.15 K
  kinematic viscosity: 5.08e-07 ± 4e-09 m2/s
  mass density: 1056.23 ± 0.06 kg/m3
[1]; 308.15 K
  kinematic viscosity: 4.76e-07 ± 4e-09 m2/s
  mass density: 1049.85 ± 0.06 kg/m3
[1]; 313.15 K
  kinematic viscosity: 4.56e-07 ± 4e-09 m2/s
  mass density: 1043.04 ± 0.06 kg/m3
[1]; 318.15 K
  kinematic viscosity: 4.33e-07 ± 4e-09 m2/s
  mass density: 1036.51 ± 0.05 kg/m3
[1]
  Normal melting temperature: 5.01 ± 0.16 °C
[2]; 288.15 K
  refractive index: 1.371 ± 0.0004
[2]; 293.15 K
  refractive index: 1.3688 ± 0.0004
[2]; 298.15 K
  refractive index: 1.3664 ± 0.0004
[2]; 303.15 K
  refractive index: 1.364 ± 0.0004
[2]; 308.15 K
  refractive index: 1.3618 ± 0.0004
[2]; 313.15 K
  refractive index: 1.3595 ± 0.0004
[2]; 318.15 K
  refractive index: 1.357 ± 0.0004

## Oc1ccccc1 [phenol]
[1]; 313.15 K
  mass density: 1058.51 ± 0.06 kg/m3
[1]
  Normal melting temperature: 40.90 ± 0.16 °C

## COc1ccccc1 [anisole]
[1]; 288.15 K
  kinematic viscosity: 1.123e-06 ± 7e-09 m2/s
  mass density: 996.56 ± 0.04 kg/m3
[1]; 293.15 K
  kinematic viscosity: 1.041e-06 ± 6e-09 m2/s
  mass density: 991.95 ± 0.04 kg/m3
[1]; 298.15 K
  kinematic viscosity: 9.71e-07 ± 6e-09 m2/s
  mass density: 989.42 ± 0.04 kg/m3 and 989.09 ± 0.04 kg/m3
[1]; 303.15 K
  kinematic viscosity: 8.99e-07 ± 6e-09 m2/s
  mass density: 983.04 ± 0.05 kg/m3
[1]; 308.15 K
  kinematic viscosity: 8.39e-07 ± 5e-09 m2/s
  mass density: 978.34 ± 0.05 kg/m3
[1]; 313.15 K
  kinematic viscosity: 7.89e-07 ± 5e-09 m2/s
  mass density: 973.62 ± 0.05 kg/m3
[1]; 318.15 K
  kinematic viscosity: 7.4e-07 ± 5e-09 m2/s
  mass density: 969.99 ± 0.05 kg/m3
[2]; 288.15 K
  refractive index: 1.5198 ± 0.0004
[2]; 293.15 K
  refractive index: 1.5169 ± 0.0004
[2]; 298.15 K
  refractive index: 1.5143 ± 0.0004
[2]; 303.15 K
  refractive index: 1.5117 ± 0.0004
[2]; 308.15 K
  refractive index: 1.5092 ± 0.0004
[2]; 313.15 K
  refractive index: 1.5063 ± 0.0004
[2]; 318.15 K
  refractive index: 1.5041 ± 0.0004

## O=C(Oc1ccccc1)Oc1ccccc1 [diphenyl carbonate]
[1]; 358.15 K
  mass density: 1113.12 ± 0.09 kg/m3
[1]
  Normal melting temperature: 80.81 ± 0.16 °C and 81.81 ± 0.16 °C

## COC(=O)Oc1ccccc1 [methyl phenyl carbonate]
[1]; 288.15 K
  kinematic viscosity: 5.143e-06 ± 2.8e-08 m2/s
  mass density: 1153.93 ± 0.1 kg/m3
[1]; 293.15 K
  kinematic viscosity: 4.275e-06 ± 2.4e-08 m2/s
  mass density: 1148.74 ± 0.1 kg/m3
[1]; 298.15 K
  kinematic viscosity: 3.665e-06 ± 2.1e-08 m2/s
  mass density: 1143.24 ± 0.1 kg/m3 and 1143.63 ± 0.1 kg/m3
[1]; 303.15 K
  kinematic viscosity: 3.196e-06 ± 1.8e-08 m2/s
  mass density: 1138.41 ± 0.1 kg/m3
[1]; 308.15 K
  kinematic viscosity: 2.816e-06 ± 1.6e-08 m2/s
  mass density: 1133.26 ± 0.1 kg/m3
[1]; 313.15 K
  kinematic viscosity: 2.486e-06 ± 1.4e-08 m2/s
  mass density: 1128.11 ± 0.09 kg/m3
[1]; 318.15 K
  kinematic viscosity: 2.235e-06 ± 1.3e-08 m2/s
  mass density: 1122.97 ± 0.09 kg/m3
[1]
  Normal melting temperature: -31.00 ± 0.16 °C
[2]; 288.15 K
  refractive index: 1.4991 ± 0.0004
[2]; 293.15 K
  refractive index: 1.4965 ± 0.0004
[2]; 298.15 K
  refractive index: 1.4942 ± 0.0004
[2]; 303.15 K
  refractive index: 1.492 ± 0.0004
[2]; 308.15 K
  refractive index: 1.4896 ± 0.0004
[2]; 313.15 K
  refractive index: 1.4873 ± 0.0004
[2]; 318.15 K
  refractive index: 1.4853 ± 0.0004
